US8192962B2, “Processes for detecting toxic substances” (Daikin Industries, Ltd., priority 2001, dated 2012)

System: Genes belonging to other category
Assay: DNA chip mRNA expression in yeast, genes belonging to other category (Table 9)
Assay type: cell-based, Saccharomyces cerevisiae S288C
Procedure, shortened: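 S. cerevisiae S288C grown at 25° C. in YPD to log phase, then exposed 2 h to a toxicant at a growth-inhibiting, non-lethal concentration; untreated cells as control. Poly(A) mRNA reverse-transcribed with Cy3-dUTP or Cy5-dUTP, hybridized >12 h at 65° C. to whole-genome yeast DNA chip; value = fluorescence ratio treated/untreated.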

Question: Which “The level of expressed mRNA in the presence of chemical substance/The level of expressed mRNA in the absence of chemical substance” value (yeast gene YAR010C) does the source give for `S=C([S-])NCCNC(=S)[S-].[Zn+2]` [(11), zinc N,N′-ethylenebis(dithiocarbamate)] here?
Answer: 0.9

Question: What about the “The level of expressed mRNA in the presence of chemical substance/The level of expressed mRNA in the absence of chemical substance” value (yeast gene YBL005W-A) of the same molecule?
Answer: 0.8

Question: And the “The level of expressed mRNA in the presence of chemical substance/The level of expressed mRNA in the absence of chemical substance” value (yeast gene YBL041W)?
Answer: 1.6

Question: And the “The level of expressed mRNA in the presence of chemical substance/The level of expressed mRNA in the absence of chemical substance” value (yeast gene YBL043W)?
Answer: 1.5

Question: What about the “The level of expressed mRNA in the presence of chemical substance/The level of expressed mRNA in the absence of chemical substance” value (yeast gene YBL078C) of the same molecule?
Answer: 4.6

Question: And the “The level of expressed mRNA in the presence of chemical substance/The level of expressed mRNA in the absence of chemical substance” value (yeast gene YBL101C)?
Answer: 0.8

Question: And the “The level of expressed mRNA in the presence of chemical substance/The level of expressed mRNA in the absence of chemical substance” value (yeast gene YBL101W-A)?
Answer: 1.2

Question: What about the “The level of expressed mRNA in the presence of chemical substance/The level of expressed mRNA in the absence of chemical substance” value (yeast gene YBL102W) of the same molecule?
Answer: 1.2

Question: And the “The level of expressed mRNA in the presence of chemical substance/The level of expressed mRNA in the absence of chemical substance” value (yeast gene YBR009C)?
Answer: 0.8

Question: What about the “The level of expressed mRNA in the presence of chemical substance/The level of expressed mRNA in the absence of chemical substance” value (yeast gene YBR031W) of the same molecule?
Answer: 0.9

Question: And the “The level of expressed mRNA in the presence of chemical substance/The level of expressed mRNA in the absence of chemical substance” value (yeast gene YBR128C)?
Answer: 1.3

Question: And the “The level of expressed mRNA in the presence of chemical substance/The level of expressed mRNA in the absence of chemical substance” value (yeast gene YBR177C)?
Answer: 0.6

Question: And the “The level of expressed mRNA in the presence of chemical substance/The level of expressed mRNA in the absence of chemical substance” value (yeast gene YBR214W)?
Answer: 3.2

Question: What about the “The level of expressed mRNA in the presence of chemical substance/The level of expressed mRNA in the absence of chemical substance” value (yeast gene YBR239C) of the same molecule?
Answer: 0.7

Question: And the “The level of expressed mRNA in the presence of chemical substance/The level of expressed mRNA in the absence of chemical substance” value (yeast gene YBR290W)?
Answer: 1.2

Question: And the “The level of expressed mRNA in the presence of chemical substance/The level of expressed mRNA in the absence of chemical substance” value (yeast gene YCL020W)?
Answer: 1.3

Question: And the “The level of expressed mRNA in the presence of chemical substance/The level of expressed mRNA in the absence of chemical substance” value (yeast gene YCL027W)?
Answer: 0.9

Question: And the “The level of expressed mRNA in the presence of chemical substance/The level of expressed mRNA in the absence of chemical substance” value (yeast gene YCL067C)?
Answer: 1.6

Question: What about the “The level of expressed mRNA in the presence of chemical substance/The level of expressed mRNA in the absence of chemical substance” value (yeast gene YCR004C) of the same molecule?
Answer: 1.9

Question: What about the “The level of expressed mRNA in the presence of chemical substance/The level of expressed mRNA in the absence of chemical substance” value (yeast gene YCR039C) of the same molecule?
Answer: 1.2

Question: What about the “The level of expressed mRNA in the presence of chemical substance/The level of expressed mRNA in the absence of chemical substance” value (yeast gene YCR062W) of the same molecule?
Answer: 1.2

Question: And the “The level of expressed mRNA in the presence of chemical substance/The level of expressed mRNA in the absence of chemical substance” value (yeast gene YCR067C)?
Answer: 1.2

Question: What about the “The level of expressed mRNA in the presence of chemical substance/The level of expressed mRNA in the absence of chemical substance” value (yeast gene YCR069W) of the same molecule?
Answer: 1.3

Question: And the “The level of expressed mRNA in the presence of chemical substance/The level of expressed mRNA in the absence of chemical substance” value (yeast gene YCR071C)?
Answer: 1.1

Question: What about the “The level of expressed mRNA in the presence of chemical substance/The level of expressed mRNA in the absence of chemical substance” value (yeast gene YCR088W) of the same molecule?
Answer: 1.0

Question: And the “The level of expressed mRNA in the presence of chemical substance/The level of expressed mRNA in the absence of chemical substance” value (yeast gene YCR096C)?
Answer: 1.4

Question: What about the “The level of expressed mRNA in the presence of chemical substance/The level of expressed mRNA in the absence of chemical substance” value (yeast gene YCR106W) of the same molecule?
Answer: 1.2

Question: And the “The level of expressed mRNA in the presence of chemical substance/The level of expressed mRNA in the absence of chemical substance” value (yeast gene YDL008W)?
Answer: 0.9

Question: What about the “The level of expressed mRNA in the presence of chemical substance/The level of expressed mRNA in the absence of chemical substance” value (yeast gene YDL061C) of the same molecule?
Answer: 1.4

Question: And the “The level of expressed mRNA in the presence of chemical substance/The level of expressed mRNA in the absence of chemical substance” value (yeast gene YDL143W)?
Answer: 1.3

Question: And the “The level of expressed mRNA in the presence of chemical substance/The level of expressed mRNA in the absence of chemical substance” value (yeast gene YDL238C)?
Answer: 1.1

Question: What about the “The level of expressed mRNA in the presence of chemical substance/The level of expressed mRNA in the absence of chemical substance” value (yeast gene YDR055W) of the same molecule?
Answer: 2.2

Question: And the “The level of expressed mRNA in the presence of chemical substance/The level of expressed mRNA in the absence of chemical substance” value (yeast gene YDR080W)?
Answer: 1.2

Question: And the “The level of expressed mRNA in the presence of chemical substance/The level of expressed mRNA in the absence of chemical substance” value (yeast gene YDR084C)?
Answer: 0.7

Question: What about the “The level of expressed mRNA in the presence of chemical substance/The level of expressed mRNA in the absence of chemical substance” value (yeast gene YDR085C) of the same molecule?
Answer: 1.7

Question: What about the “The level of expressed mRNA in the presence of chemical substance/The level of expressed mRNA in the absence of chemical substance” value (yeast gene YDR104C) of the same molecule?
Answer: 1.0

Question: What about the “The level of expressed mRNA in the presence of chemical substance/The level of expressed mRNA in the absence of chemical substance” value (yeast gene YDR115W) of the same molecule?
Answer: 1.2

Question: And the “The level of expressed mRNA in the presence of chemical substance/The level of expressed mRNA in the absence of chemical substance” value (yeast gene YDR181C)?
Answer: 0.8

Question: What about the “The level of expressed mRNA in the presence of chemical substance/The level of expressed mRNA in the absence of chemical substance” value (yeast gene YDR188W) of the same molecule?
Answer: 0.9

Question: What about the “The level of expressed mRNA in the presence of chemical substance/The level of expressed mRNA in the absence of chemical substance” value (yeast gene YDR257C) of the same molecule?
Answer: 1.3

Question: And the “The level of expressed mRNA in the presence of chemical substance/The level of expressed mRNA in the absence of chemical substance” value (yeast gene YDR259C)?
Answer: 1.2

Question: What about the “The level of expressed mRNA in the presence of chemical substance/The level of expressed mRNA in the absence of chemical substance” value (yeast gene YDR264C) of the same molecule?
Answer: 0.9

Question: What about the “The level of expressed mRNA in the presence of chemical substance/The level of expressed mRNA in the absence of chemical substance” value (yeast gene YDR276C) of the same molecule?
Answer: 1.4

Question: And the “The level of expressed mRNA in the presence of chemical substance/The level of expressed mRNA in the absence of chemical substance” value (yeast gene YDR304C)?
Answer: 1.2

Question: And the “The level of expressed mRNA in the presence of chemical substance/The level of expressed mRNA in the absence of chemical substance” value (yeast gene YDR315C)?
Answer: 1.1

Question: And the “The level of expressed mRNA in the presence of chemical substance/The level of expressed mRNA in the absence of chemical substance” value (yeast gene YDR358W)?
Answer: 1.0

Question: What about the “The level of expressed mRNA in the presence of chemical substance/The level of expressed mRNA in the absence of chemical substance” value (yeast gene YDR378C) of the same molecule?
Answer: 0.8

Question: And the “The level of expressed mRNA in the presence of chemical substance/The level of expressed mRNA in the absence of chemical substance” value (yeast gene YDR382W)?
Answer: 1.2

Question: And the “The level of expressed mRNA in the presence of chemical substance/The level of expressed mRNA in the absence of chemical substance” value (yeast gene YDR388W)?
Answer: 1.6

Question: What about the “The level of expressed mRNA in the presence of chemical substance/The level of expressed mRNA in the absence of chemical substance” value (yeast gene YDR407C) of the same molecule?
Answer: 1.2
